According to ChEMBL document CHEMBL1201862, “PubChem BioAssay data set” (2004):
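Step 1: Grow cells in 96-well plates. Step 2: Expose to compound for 48 hours at 5 concentrations. Step 3: Interpolate endpoints linearly; if unreached, use highest concentration. Here, GI50 denotes the concentration required for 50% inhibition of growth.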 Calls of active or inactive are those of the source. Cut-off read from the data, not from the text of the source: active = GI50 up to about 1.1 µM and inactive = higher.

Columns and labels:
Experiment in all cases: DTP human tumour cell line panel, 48 h
KM12 = test system: KM12
SF-295 = test system: SF-295
MDA-N = test system: MDA-N
OVCAR-5 = test system: OVCAR-5
M14 = test system: M14
A549 = test system: A549
DU-145 = test system: DU-145
ACHN = test system: ACHN
Hs-578T = test system: Hs-578T
A498 = test system: A498
SK-MEL-28 = test system: SK-MEL-28
CCRF-CEM = test system: CCRF-CEM
HOP-92 = test system: HOP-92
RXF 393 = test system: RXF 393
EKVX = test system: EKVX
MOLT-4 = test system: MOLT-4
NCI-H460 = test system: NCI-H460
RPMI-8226 = test system: RPMI-8226
SK-OV-3 = test system: SK-OV-3
HL-60 = test system: HL-60

SMILES | GI50 (KM12) | GI50 (SF-295) | GI50 (MDA-N) | GI50 (OVCAR-5) | GI50 (M14) | GI50 (A549) | GI50 (DU-145) | GI50 (ACHN) | GI50 (Hs-578T) | GI50 (A498) | GI50 (SK-MEL-28) | GI50 (CCRF-CEM) | GI50 (HOP-92) | GI50 (RXF 393) | GI50 (EKVX) | GI50 (MOLT-4) | GI50 (NCI-H460) | GI50 (RPMI-8226) | GI50 (SK-OV-3) | GI50 (HL-60)
c1ccc2sc(SCSc3nc4ccccc4s3)nc2c1 | > 100 µM (inactive) | 43.3 µM (inactive) | 76.2 µM (inactive) | > 100 µM (inactive) | > 100 µM (inactive) | 81.3 µM (inactive) | > 100 µM (inactive) | 74.8 µM (inactive) | > 100 µM (inactive) | > 100 µM (inactive) | > 100 µM (inactive) | 47.4 µM (inactive) | > 100 µM (inactive) | > 100 µM (inactive) | 50.1 µM (inactive) | 8.81 µM (inactive) | 22.4 µM (inactive) | 51.5 µM (inactive) |  | 
Oc1c2c(nc3cc4c(cc13)OCO4)-c1ccccc1CCC2 | > 50 µM (inactive) | 17.1 µM (inactive) | 18.9 µM (inactive) | > 50 µM (inactive) | 49.3 µM (inactive) | > 50 µM (inactive) | > 50 µM (inactive) | > 50 µM (inactive) | 15.9 µM (inactive) | > 50 µM (inactive) | > 50 µM (inactive) | > 50 µM (inactive) | > 50 µM (inactive) | > 50 µM (inactive) | > 50 µM (inactive) | > 50 µM (inactive) | > 50 µM (inactive) | > 50 µM (inactive) | > 50 µM (inactive) | 
O=C1NC(=O)c2ccc([N+](=O)[O-])c3cccc1c23 |  | 17.6 µM (inactive) | 12.4 µM (inactive) | 18.3 µM (inactive) | 14.8 µM (inactive) | 20.8 µM (inactive) | 34 µM (inactive) | 19 µM (inactive) | 25.2 µM (inactive) | 13.2 µM (inactive) | 20.2 µM (inactive) |  | 20 µM (inactive) | 15.5 µM (inactive) | 28.3 µM (inactive) |  | 11.5 µM (inactive) | 14.5 µM (inactive) | 23.1 µM (inactive) | 
CCN(CC)c1ccc2cc(-c3nnc(-c4ccccc4)[nH]3)c(=O)oc2c1 | 40 µM (inactive) | 24.5 µM (inactive) | > 100 µM (inactive) | 28.2 µM (inactive) | > 100 µM (inactive) | 68.5 µM (inactive) | 14.8 µM (inactive) | 36.7 µM (inactive) | 39.9 µM (inactive) | 22.9 µM (inactive) | > 100 µM (inactive) | 39.7 µM (inactive) |  |  | 22.8 µM (inactive) | > 100 µM (inactive) | 82 µM (inactive) | 54.2 µM (inactive) | 19.8 µM (inactive) | > 100 µM (inactive)
CC(=O)OCC1OC(N2C(=O)NC(=O)C3C=C4CCCCC4=CC32)CC1OC(C)=O (stereo unspecified) | > 100 µM (inactive) | > 100 µM (inactive) | > 100 µM (inactive) | > 100 µM (inactive) | > 100 µM (inactive) | > 100 µM (inactive) | > 100 µM (inactive) | > 100 µM (inactive) | > 100 µM (inactive) | > 100 µM (inactive) | > 100 µM (inactive) |  | > 100 µM (inactive) |  | > 100 µM (inactive) | > 100 µM (inactive) | > 100 µM (inactive) | > 100 µM (inactive) | > 100 µM (inactive) | 72.8 µM (inactive)
CCOc1ccc2ccc3cccnc3c2n1 | 45.4 µM (inactive) | 39.3 µM (inactive) | > 100 µM (inactive) | 55.6 µM (inactive) | 47.2 µM (inactive) | 61 µM (inactive) | > 100 µM (inactive) | 40.6 µM (inactive) | > 100 µM (inactive) | 21 µM (inactive) | > 100 µM (inactive) | 59 µM (inactive) | 44.7 µM (inactive) | 68.9 µM (inactive) | 36.5 µM (inactive) |  | 36.3 µM (inactive) | 23.2 µM (inactive) | 43.4 µM (inactive) | 22.3 µM (inactive)
CC(=O)OC1[C@H](n2ccnc2)C[C@H]2[C@@H]3CC=C4CC(N5CCCC5)CC[C@]4(C)[C@H]3CC[C@]12C (stereo partly specified) | 58.3 µM (inactive) | 20.5 µM (inactive) | 28.1 µM (inactive) | > 100 µM (inactive) | 21.8 µM (inactive) | 41.4 µM (inactive) | > 100 µM (inactive) | 52.2 µM (inactive) | > 100 µM (inactive) | 32.7 µM (inactive) | 21.2 µM (inactive) | 25.6 µM (inactive) | 69.5 µM (inactive) | 11.7 µM (inactive) | 70.1 µM (inactive) | 17.3 µM (inactive) | 6.71 µM (inactive) | 23.2 µM (inactive) |  | 12.1 µM (inactive)
CCOC(=O)c1c2ccccc2n2c(=O)n(C)nnc12 | > 100 µM (inactive) | 40.1 µM (inactive) | > 100 µM (inactive) | > 100 µM (inactive) | > 100 µM (inactive) | > 100 µM (inactive) | > 100 µM (inactive) | > 84.1 µM (inactive) | > 100 µM (inactive) | > 100 µM (inactive) | > 100 µM (inactive) | > 100 µM (inactive) | > 100 µM (inactive) | > 47.4 µM (inactive) | 99.8 µM (inactive) |  | > 100 µM (inactive) | > 100 µM (inactive) | > 80.5 µM (inactive) | 1.53 µM (inactive)
COc1cc([C@@H]2c3cc4c(cc3[C@@H](Nc3ccccc3C(=O)c3ccccc3)[C@H]3COC(=O)[C@H]23)OCO4)cc(OC)c1OC | 0.3 µM (active) | 0.376 µM (active) | 0.316 µM (active) | 0.885 µM (active) | 0.729 µM (active) | 0.753 µM (active) | 1.82 µM (inactive) | 0.535 µM (active) | 0.373 µM (active) | 0.149 µM (active) | 0.472 µM (active) | 0.347 µM (active) |  | 0.459 µM (active) | > 54.6 µM (inactive) | 0.38 µM (active) | 0.442 µM (active) | 0.381 µM (active) |  | 0.212 µM (active)
CCOC(=O)C1=NN(c2ccccc2)C(=O)/C1=C\NC(=S)C(N)=S | 70.6 µM (inactive) | 74.6 µM (inactive) | 32.8 µM (inactive) | 38.6 µM (inactive) | 26.5 µM (inactive) | 66.1 µM (inactive) | 50.9 µM (inactive) | 21.5 µM (inactive) | 32.7 µM (inactive) | > 100 µM (inactive) | 39.8 µM (inactive) | 34.1 µM (inactive) | 39.1 µM (inactive) | 29.2 µM (inactive) | 27.2 µM (inactive) | 26.4 µM (inactive) | 49.3 µM (inactive) |  | 75.7 µM (inactive) | 38.9 µM (inactive)
Nn1c(SCC(=O)NCc2ccccc2)nc2ccccc2c1=O | > 100 µM (inactive) | 48.6 µM (inactive) | 38.9 µM (inactive) | > 100 µM (inactive) | 36.6 µM (inactive) | 31.3 µM (inactive) | 65 µM (inactive) | 40.6 µM (inactive) | 57.5 µM (inactive) | 61.2 µM (inactive) | 92.5 µM (inactive) | 13.7 µM (inactive) | 34.2 µM (inactive) | 34.1 µM (inactive) | 64.3 µM (inactive) | 19.1 µM (inactive) | 46.3 µM (inactive) | 40.8 µM (inactive) |  | 
COC(=O)c1c(OC(C)=O)ccc2c1c1c(n2C)C(=O)c2ccccc2C1=O | 29.1 µM (inactive) | 21.5 µM (inactive) | 19 µM (inactive) | 34.3 µM (inactive) | 35.2 µM (inactive) | 20.7 µM (inactive) | 14.6 µM (inactive) | 15.6 µM (inactive) | 8.38 µM (inactive) | 13.5 µM (inactive) | 31.8 µM (inactive) |  | 1.34 µM (inactive) | 37.1 µM (inactive) | 28.8 µM (inactive) | 18.3 µM (inactive) | 22.4 µM (inactive) | 8.15 µM (inactive) | 12.9 µM (inactive) | 32.1 µM (inactive)
CCOP(=O)(OCC)[C@H]1OC(C)(C)O[C@@H]1CO | > 100 µM (inactive) | > 100 µM (inactive) | > 100 µM (inactive) | > 100 µM (inactive) | > 100 µM (inactive) | > 100 µM (inactive) | > 100 µM (inactive) | > 100 µM (inactive) | > 100 µM (inactive) | > 100 µM (inactive) | > 100 µM (inactive) | > 100 µM (inactive) | > 100 µM (inactive) |  | > 100 µM (inactive) | > 100 µM (inactive) | > 100 µM (inactive) | > 100 µM (inactive) | > 100 µM (inactive) | > 100 µM (inactive)
Cc1cc(C[C@H]2O[C@@H]3OC(C)(C)O[C@@H]3[C@H]3OC(C)(C)O[C@H]32)c2ccccc2n1 | 54.8 µM (inactive) | > 100 µM (inactive) | 41.3 µM (inactive) | > 100 µM (inactive) |  | 63.4 µM (inactive) | > 100 µM (inactive) | > 100 µM (inactive) | 26.4 µM (inactive) | > 100 µM (inactive) | > 100 µM (inactive) | 42.1 µM (inactive) |  | 39.1 µM (inactive) | 79.6 µM (inactive) | 31.8 µM (inactive) | 30 µM (inactive) | 27.1 µM (inactive) | > 100 µM (inactive) | 27.5 µM (inactive)
COc1cc(/C=C2\CCC/C(=C\c3ccc(OC(=O)CCCCC4CCSS4)c(OC)c3)C2=O)ccc1OC(=O)CCCCC1CCSS1 (stereo unspecified) | > 100 µM (inactive) | > 100 µM (inactive) | > 100 µM (inactive) | > 100 µM (inactive) | > 100 µM (inactive) | > 100 µM (inactive) | > 100 µM (inactive) | > 100 µM (inactive) | > 100 µM (inactive) | > 100 µM (inactive) | > 100 µM (inactive) | 91.2 µM (inactive) |  | > 100 µM (inactive) | > 100 µM (inactive) | > 100 µM (inactive) | > 100 µM (inactive) | > 100 µM (inactive) | > 100 µM (inactive) | > 100 µM (inactive)
